{"source": "paper PMC7827085", "about": "(Pharmaceutics, 2021)", "key": {"OATP2B1": {"target": "T1, OATP2B1 (Homo sapiens, UniProt O94956)", "T1 sequence (O94956 1-709)": "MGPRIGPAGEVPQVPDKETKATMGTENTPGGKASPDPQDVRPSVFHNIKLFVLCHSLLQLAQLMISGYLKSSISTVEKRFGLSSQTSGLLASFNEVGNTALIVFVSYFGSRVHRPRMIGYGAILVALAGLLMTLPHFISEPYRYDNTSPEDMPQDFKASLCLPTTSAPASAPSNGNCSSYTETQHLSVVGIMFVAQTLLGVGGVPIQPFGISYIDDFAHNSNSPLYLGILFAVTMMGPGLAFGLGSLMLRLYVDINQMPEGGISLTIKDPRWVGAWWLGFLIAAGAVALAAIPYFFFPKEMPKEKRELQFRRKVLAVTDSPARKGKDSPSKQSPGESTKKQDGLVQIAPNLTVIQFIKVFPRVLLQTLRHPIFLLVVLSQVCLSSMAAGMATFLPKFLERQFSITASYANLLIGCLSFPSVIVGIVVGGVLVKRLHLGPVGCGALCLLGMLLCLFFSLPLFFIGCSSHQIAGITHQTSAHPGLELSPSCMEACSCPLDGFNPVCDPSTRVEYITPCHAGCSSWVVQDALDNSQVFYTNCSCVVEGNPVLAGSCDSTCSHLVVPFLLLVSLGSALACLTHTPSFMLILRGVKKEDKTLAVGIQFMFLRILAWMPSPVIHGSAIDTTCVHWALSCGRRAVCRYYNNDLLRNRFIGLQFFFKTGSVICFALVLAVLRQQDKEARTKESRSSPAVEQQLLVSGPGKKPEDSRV", "experiment": "cell-based"}, "Q141K-ABCG2 variant": {"target": "T2, Q141K-ABCG2 variant (Homo sapiens, UniProt Q9UNQ0, Q141K)", "T2 construct": "expressed in transfected cells; host or cells: HeLa (Sleeping Beauty transposon system)", "T2 sequence (Q9UNQ0 1-655 Q141K)": "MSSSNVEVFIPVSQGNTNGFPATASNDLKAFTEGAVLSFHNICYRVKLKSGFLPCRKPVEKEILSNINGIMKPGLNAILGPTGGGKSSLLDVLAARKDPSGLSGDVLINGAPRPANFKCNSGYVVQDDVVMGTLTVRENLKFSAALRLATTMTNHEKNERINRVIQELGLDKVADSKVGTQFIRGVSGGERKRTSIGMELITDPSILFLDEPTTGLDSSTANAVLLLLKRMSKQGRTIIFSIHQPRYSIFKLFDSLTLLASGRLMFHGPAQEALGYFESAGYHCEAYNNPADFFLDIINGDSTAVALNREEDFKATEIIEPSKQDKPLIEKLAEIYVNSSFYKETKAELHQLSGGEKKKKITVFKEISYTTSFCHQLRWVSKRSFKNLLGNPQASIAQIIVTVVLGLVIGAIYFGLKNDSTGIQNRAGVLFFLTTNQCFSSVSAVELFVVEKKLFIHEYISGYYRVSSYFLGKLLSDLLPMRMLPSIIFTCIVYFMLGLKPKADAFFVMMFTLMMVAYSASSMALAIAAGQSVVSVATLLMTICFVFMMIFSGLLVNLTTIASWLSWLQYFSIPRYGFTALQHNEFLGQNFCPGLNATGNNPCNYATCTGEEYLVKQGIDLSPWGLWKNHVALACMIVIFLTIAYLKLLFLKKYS", "experiment": "Hoechst 33342 dye extrusion in HeLa cells expressing Q141K-ABCG2", "format": "cell-based", "settings": "Q141K-ABCG2 variant vs WT"}, "ABCC1/MRP1": {"target": "ABCC1/MRP1 (Homo sapiens, UniProt P33527)", "sequence (P33527 whole entry)": "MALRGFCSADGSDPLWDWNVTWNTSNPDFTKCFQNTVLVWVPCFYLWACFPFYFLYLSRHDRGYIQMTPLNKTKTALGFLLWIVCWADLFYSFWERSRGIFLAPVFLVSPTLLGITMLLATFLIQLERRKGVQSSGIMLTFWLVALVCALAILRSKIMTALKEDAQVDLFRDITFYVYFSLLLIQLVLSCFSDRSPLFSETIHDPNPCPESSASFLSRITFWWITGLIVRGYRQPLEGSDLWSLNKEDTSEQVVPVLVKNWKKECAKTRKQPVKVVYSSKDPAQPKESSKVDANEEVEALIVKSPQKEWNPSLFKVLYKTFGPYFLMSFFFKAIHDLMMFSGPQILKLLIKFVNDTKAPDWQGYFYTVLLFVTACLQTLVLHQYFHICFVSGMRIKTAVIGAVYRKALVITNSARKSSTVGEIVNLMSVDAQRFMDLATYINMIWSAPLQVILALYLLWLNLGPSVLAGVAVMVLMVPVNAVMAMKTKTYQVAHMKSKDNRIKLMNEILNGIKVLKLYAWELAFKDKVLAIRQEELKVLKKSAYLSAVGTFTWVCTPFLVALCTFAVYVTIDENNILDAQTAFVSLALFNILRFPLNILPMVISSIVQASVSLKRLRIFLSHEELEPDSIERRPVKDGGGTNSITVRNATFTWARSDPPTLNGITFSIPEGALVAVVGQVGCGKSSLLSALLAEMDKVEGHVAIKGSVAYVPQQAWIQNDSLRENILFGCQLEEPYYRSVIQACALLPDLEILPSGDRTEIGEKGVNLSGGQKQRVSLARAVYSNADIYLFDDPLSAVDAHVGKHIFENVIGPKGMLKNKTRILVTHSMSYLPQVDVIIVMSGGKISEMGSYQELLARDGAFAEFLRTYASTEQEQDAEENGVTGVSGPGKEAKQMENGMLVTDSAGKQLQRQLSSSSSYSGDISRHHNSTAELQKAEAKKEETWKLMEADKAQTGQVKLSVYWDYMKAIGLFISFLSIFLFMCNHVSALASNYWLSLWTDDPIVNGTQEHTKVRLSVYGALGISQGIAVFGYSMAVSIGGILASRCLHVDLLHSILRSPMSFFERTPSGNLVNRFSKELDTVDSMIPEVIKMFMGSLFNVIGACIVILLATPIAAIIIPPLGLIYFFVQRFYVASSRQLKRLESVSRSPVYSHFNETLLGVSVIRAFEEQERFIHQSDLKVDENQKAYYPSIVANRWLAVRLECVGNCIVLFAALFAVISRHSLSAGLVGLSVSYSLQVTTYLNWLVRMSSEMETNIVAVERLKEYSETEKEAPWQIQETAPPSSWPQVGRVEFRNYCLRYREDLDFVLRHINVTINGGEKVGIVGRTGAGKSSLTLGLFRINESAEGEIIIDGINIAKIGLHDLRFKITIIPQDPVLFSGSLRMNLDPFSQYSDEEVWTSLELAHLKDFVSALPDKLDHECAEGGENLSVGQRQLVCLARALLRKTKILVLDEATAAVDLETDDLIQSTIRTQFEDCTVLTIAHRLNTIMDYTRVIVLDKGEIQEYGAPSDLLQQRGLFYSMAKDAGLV", "experiment": "in vitro"}, "OATP1A2": {"target": "T3, OATP1A2 (Homo sapiens, UniProt P46721)", "T3 sequence (P46721 1-670)": "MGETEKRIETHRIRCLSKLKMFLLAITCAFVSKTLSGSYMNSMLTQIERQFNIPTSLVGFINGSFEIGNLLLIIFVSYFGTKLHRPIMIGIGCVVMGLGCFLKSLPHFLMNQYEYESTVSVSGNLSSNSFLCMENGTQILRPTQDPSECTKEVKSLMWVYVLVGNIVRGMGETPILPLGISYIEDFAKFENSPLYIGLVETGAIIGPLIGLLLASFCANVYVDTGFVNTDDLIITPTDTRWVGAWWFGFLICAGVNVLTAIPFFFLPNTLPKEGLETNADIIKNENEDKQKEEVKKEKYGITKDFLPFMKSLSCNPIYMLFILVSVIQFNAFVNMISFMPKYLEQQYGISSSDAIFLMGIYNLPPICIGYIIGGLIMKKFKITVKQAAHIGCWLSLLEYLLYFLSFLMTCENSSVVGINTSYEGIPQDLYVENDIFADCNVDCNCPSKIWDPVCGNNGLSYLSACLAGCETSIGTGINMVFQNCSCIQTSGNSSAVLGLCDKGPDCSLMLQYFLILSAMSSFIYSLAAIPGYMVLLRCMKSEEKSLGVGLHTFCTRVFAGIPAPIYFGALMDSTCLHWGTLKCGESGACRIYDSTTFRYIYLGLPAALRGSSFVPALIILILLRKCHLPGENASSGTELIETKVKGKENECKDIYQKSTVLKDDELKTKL", "experiment": "cell-based"}, "ABCG2/BCRP": {"target": "T4, ABCG2/BCRP (Homo sapiens, UniProt Q9UNQ0)", "T4 sequence (Q9UNQ0 1-655)": "T2 sequence (Q9UNQ0 1-655 Q141K) with K141Q", "experiment": "ABCG2-ATPase activity in Sf9 membrane vesicles", "format": "biochemical", "parameters": "expressed in transfected cells; host or cells: PLB-985", "settings": "Sf9/ABCG2 membranes; ivermectin, ritonavir, lopinavir at low micromolar, remdesivir at higher concentrations", "description": "ABC transporter ATPase activity was measured in Sf9 membrane vesicles containing the respective human ABC transporters [46, 47, 48, 49, 50]. For ABCG2/BCRP, the cholesterol level in the vesicles was increased to the level of mammalian cell membranes for full activity [49]. For ABCB1/Pgp 20 μg/150 μL and for ABCG2/BCRP 10 μg/150 μL, vesicles were incubated with 3 mM Mg-ATP for 25 min at 37 °C. The test drugs were dissolved in DMSO and 1 µL was added to the samples. The ABC transporter-related ATPase activity was determined and reference activators (50 µM verapamil for ABCB1 and 5 µM quercetin for ABCG2) served as controls.\nDrug-stimulated ATPase activity of the ABCG2 transporter was also measured in the present study."}, "wild-type ABCG2": {"target": "T5, wild-type ABCG2 (Homo sapiens, UniProt Q9UNQ0)", "T5 construct": "expressed in transfected cells; host or cells: HeLa (Sleeping Beauty transposon system)", "T5 sequence (Q9UNQ0 1-655)": "T2 sequence (Q9UNQ0 1-655 Q141K) with K141Q", "experiment": "Hoechst 33342 dye extrusion in HeLa cells expressing wild-type ABCG2", "format": "cell-based", "settings": "wild-type ABCG2, 0.2 µM Hoechst 33342, full inhibition by 1 µM Ko143"}, "ABCB1/Pgp": {"target": "T6, ABCB1/Pgp (Homo sapiens, UniProt P08183)", "T6 construct": "made in house; host or cells: Sf9 insect cells", "experiment": "ABCB1-ATPase activity in Sf9 membrane vesicles", "format": "biochemical", "experimental": "ABC transporter ATPase activity was measured in Sf9 membrane vesicles containing the respective human ABC transporters. For ABCG2/BCRP, the cholesterol level in the vesicles was increased to the level of mammalian cell membranes for full activity. For ABCB1/Pgp 20 μg/150 μL and for ABCG2/BCRP 10 μg/150 μL, vesicles were incubated with 3 mM Mg-ATP for 25 min at 37 °C. The test drugs were dissolved in DMSO and 1 µL was added to the samples. The ABC transporter-related ATPase activity was determined and reference activators (50 µM verapamil for ABCB1 and 5 µM quercetin for ABCG2) served as controls.\nDrug-stimulated ATPase activity of the ABCB1 transporter is a well-documented functional assay employed to estimate the substrate or inhibitory features of various drugs. […] In this assay, most transported substrates show a biphasic curve: Low concentrations stimulate, while higher concentrations inhibit, the ATPase activity. In these experiments, we measured the vanadate-sensitive (ABC transporter-related) ABCB1-ATPase activity in membrane vesicles isolated from ABCB1 overexpressing Sf9 cells."}}, "note": "Where a chain is given by its changes, count along the chain named. pIC50: −log10 of the molar value.", "data": [{"smiles": "Cc1cccc(C)c1OCC(=O)N[C@@H](Cc1ccccc1)[C@@H](O)C[C@H](Cc1ccccc1)NC(=O)[C@H](C(C)C)N1CCCNC1=O", "note": "[lopinavir]", "values": [{"measurement": "pIC50", "setting": "OATP2B1", "value": 6.00}, {"measurement": "Inhibition of Hst dye extrusion in Q141K-ABCG2 HeLa cells compared with wild type (in words)", "setting": "Q141K-ABCG2 variant", "value": "significantly stronger inhibition"}, {"measurement": "inhibition at 3 min", "setting": "ABCC1/MRP1", "value": 60, "unit": "%"}, {"measurement": "pIC50", "setting": "OATP1A2", "value": 5.82}, {"measurement": "Effect on baseline ABCG2-ATPase activity (in words)", "setting": "ABCG2/BCRP", "value": "significantly inhibited"}, {"measurement": "Effect on Hst dye extrusion by ABCG2 in HeLa cells (in words)", "setting": "wild-type ABCG2", "value": "inhibited"}, {"measurement": "Concentration of maximal ABCB1-ATPase stimulation", "setting": "ABCB1/Pgp; Sf9/ABCB1 membranes", "value": "around 0.5 µM"}, {"measurement": "Effect on ABCB1-ATPase activity (in words)", "setting": "ABCB1/Pgp; Sf9/ABCB1 membranes, 50 µM verapamil as reference activator", "value": "significant ABCB1-ATPase stimulation"}, {"measurement": "Effect on ABCB1-ATPase activity at higher concentrations (in words)", "setting": "ABCB1/Pgp; at higher concentrations", "value": "inhibitory effects"}]}]}
